Source: patent US9688613B2 (Jiva Pharma, Inc., priority 2015, dated 2017)

Test system: GABA-A receptors
Assay: Displacement of [3H] muscimol from GABA-A receptors
Format: binding
Procedure: Muscimol is the principal psychoactive constituent of Amanita muscaria and related species of mushroom.
These tests were performed using the procedure described by Tomasz Plech et. al., Studies on anticonvulsant activity of 4-alkyl-1,2,4-triazole-3-thiones and their effect on GABAergic system; European J. of Medicinal Chem. 2014, 86, 690-699.

| SMILES | % of [3H]-MUSCIMOL inhibition (LOG OF MOLAR CONC. −4) [%] | % of [3H]-MUSCIMOL inhibition (LOG OF MOLAR CONC. −5) [%] |
| --- | --- | --- |
| CC/C=C\C/C=C\C/C=C\C/C=C\C/C=C\C/C=C\CCC(CN)CC(=O)O (centres unmarked) [Example 1, 3-Aminomethyl-tetracosa-6,9,12,15,18,21-hexaenoic Acid] | 10 | 0 |
| CC(C)C[C@H](CN)CC(=O)O [Pregabalin, S-isobutylgaba, reference compound] | 12 | 0 |
| CC/C=C\C/C=C\C/C=C\C/C=C\C/C=C\CCCC(CN)CC(=O)O (centres unmarked) [Example 2, 3-Aminomethyl-docosa-7,10,13,16,19-pentaenoic Acid] | 15 | 10 |
| CC/C=C\C/C=C\C/C=C\CCCCCCCC(CN)CC(=O)O (centres unmarked) [Example 3, 3-Aminomethyl-eicosa-11,14,17-trienoic Acid] | 8 | 0 |
